Results on six compounds are retold here after patent US8912224B2, “Substituted 2-(chroman-6-yloxy)-thiazoles and their use as pharmaceuticals” (Sanofi, priority 2011, dated 2014).

As a reminder, the IC50 is the concentration that inhibits the measured activity by half.

Sequence of human NCX1 (P32418 whole entry, looked up): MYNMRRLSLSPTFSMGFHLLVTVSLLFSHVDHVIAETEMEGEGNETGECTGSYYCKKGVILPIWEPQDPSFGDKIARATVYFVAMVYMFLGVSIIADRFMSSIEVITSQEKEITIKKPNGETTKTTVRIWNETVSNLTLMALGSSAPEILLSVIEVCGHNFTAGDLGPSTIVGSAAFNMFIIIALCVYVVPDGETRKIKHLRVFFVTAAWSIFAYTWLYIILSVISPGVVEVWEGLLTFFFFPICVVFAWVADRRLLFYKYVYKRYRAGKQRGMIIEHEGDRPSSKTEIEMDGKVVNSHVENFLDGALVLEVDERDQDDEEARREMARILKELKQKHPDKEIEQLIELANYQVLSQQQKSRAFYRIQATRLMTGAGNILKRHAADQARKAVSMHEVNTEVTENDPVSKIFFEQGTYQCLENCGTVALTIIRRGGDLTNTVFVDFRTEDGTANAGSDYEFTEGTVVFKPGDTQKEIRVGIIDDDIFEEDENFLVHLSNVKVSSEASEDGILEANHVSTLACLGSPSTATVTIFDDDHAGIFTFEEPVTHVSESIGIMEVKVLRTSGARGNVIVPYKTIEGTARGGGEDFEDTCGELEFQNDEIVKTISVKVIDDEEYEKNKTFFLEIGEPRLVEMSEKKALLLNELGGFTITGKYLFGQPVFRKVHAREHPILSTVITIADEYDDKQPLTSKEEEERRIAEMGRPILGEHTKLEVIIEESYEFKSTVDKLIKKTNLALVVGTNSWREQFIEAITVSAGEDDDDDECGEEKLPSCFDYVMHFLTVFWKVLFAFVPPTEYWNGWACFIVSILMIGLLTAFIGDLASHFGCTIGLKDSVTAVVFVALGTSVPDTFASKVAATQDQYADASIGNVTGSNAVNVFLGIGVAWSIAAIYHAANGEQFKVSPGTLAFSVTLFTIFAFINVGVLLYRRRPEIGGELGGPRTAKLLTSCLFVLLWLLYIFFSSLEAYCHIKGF

The experiment addresses human NCX1 (Homo sapiens (Human), UniProt P32418). Briefly: Inhibition of Ca2+ efflux out of cells (NCX1 forward mode), FLIPR assay. Type of experiment: cell-based. The conditions noted are these: CHO cells stably expressing human NCX1, Ionomycin 2 μM, read-out: NCX1fw IC50. An excerpt:
The sodium/calcium exchanger NCX1 can transport calcium ions and sodium ions through the cell membrane. The transport is an exchange of Ca^2+and Na^+in two directions depending on membrane potential and ion gradients. At the first direction, named “forward mode” or “calcium export mode”, Ca^2+is transported out of the cell and Na^+ is transported into the cell. At the other direction, named “reverse mode” or “calcium import mode”, the transport directions are vice versa. The effect of the compounds of the invention on NCX1 was determined in CHO cells stably expressing human NCX1 (gene symbol SLC8A1; cf. WO 2009/115238). The assay is based on the monitoring of intracellular Ca^2+concentrations using a calcium-sensitive fluorescence dye which is detected by means of a FLIPR device (Fluorimetric Imaging Plate Reader, Molecular Devices).
Assay Technology—Forward Mode
The assay is based on the monitoring of intracellular Ca^2+concentrations using the PBX Calcium Assay Kit from BD (Becton, Dickinson and Company) with calcium indicator dye 51-9000177BKa (BD, 640177), CHO cells expressing NCX1 were loaded with the dye, and after a preincubation period with the test compound, lonomycin (Calbiochem, 407950) was added. Ionomycin is an ionophor for Ca^2+ions mediating an increase of intracellular Ca^2+ions. Consequently, intracellular Ca^2+ions are exchanged against extracellular Na^+ions (Ca^2+efflux, forward mode). The decrease of intracellular Ca^2+ions was detected by measuring the fluorescence of the calcium indicator dye at a wavelength of 520 nm by a FLIPR device.
Briefly, similarly as for the reverse mode, for the forward mode transport assay 18000 cells per well were seeded into a 96 well microplate (Corning COSTAR 3904) and incubated overnight in culture medium (cf. above). A total volume of 100 μl medium per well was used. For the preparation of the FLIPR assay, the culture medium was removed from the plates and 100 μl of assay buffer (133.8 mM NaCl (Sigma, S5886); 4.7 mM KCl (Sigma, P3911); 1.25 mM MgCl2 (Merck, 1.05833.0250); 3.5 mM CaCl2 (Merck, 1.02083.0250); 5 mM glucose (Sigma. G7021); 10 mM Hepes (Sigma, H4034); pH 7.4)) were added to each well in a washing step. Assay buffer was removed, and 100 μl of a solution of the test compound in assay buffer in different concentrations were added into the wells. Further, 100 μl of dye solution (0.09% (v/v) calcium indicator dye, 9.1% (v/v) signal enhancer (from PBX Calcium Assay Kit); in assay buffer) were added into each well. The plates were incubated in the dark at room temperature for 60 min. Meanwhile a 10 μM solution of lonomycin in assay buffer (additionally containing 0.05% fetal calf serum (cf. above); 4° C.) was prepared and stored in the wells of a 96 well microplate (96 well microplate, polypropylene, U-shape (Greiner Bio-One, 650201)). The fluorescence monitoring was performed at 60 measuring points with measurement intervals of 2 sec. After the fifth measuring point, 50 μl of the lonomycin solution were added to each well of the assay plate to give a final lonomycin concentration of 2 μM. For the determination of the IC50 values the minimal fluorescence value was subtracted from the maximal fluorescence value for the fifteenth to fifty-fifth measuring points. The calculation of the IC50 values via the percentage inhibitions of Ca^2+efflux out of cells (forward mode) effected by the test compound was performed in Biost@t Speed 2.0. “NCX1fw IC50” in Table 2 means the IC50 value for inhibition of NCX1 in forward mode (in μM (micromol/liter)).
`Cc1ccc(F)cc1C1CCc2cc(Oc3ncc(C(=O)NCCO)s3)ccc2O1` (stereo not drawn) [Example 342, 2-[2-(5-Fluoro-2-methyl-phenyl)-chroman-6-yloxy]-thiazole-5-carboxylic acid (2-hydroxy-ethyl)-amide]: the IC50 was 700 nM.

Consider `Cc1ccccc1[C@@H]1CCc2cc(Oc3ncc(C(=O)NCCO)s3)ccc2O1` [Example 326, 2-((S)-2-o-Tolyl-chroman-6-yloxy)-thiazole-5-carboxylic acid (2-hydroxy-ethyl)-amide], for which the IC50 is 200 nM.

Turning to `Cc1ccccc1C1CCc2cc(Oc3ncc(CNC(=O)CN4CCCC4=O)s3)ccc2O1` (stereo not drawn) [Example 327, 2-(2-Oxo-pyrrolidin-1-yl)-N-[2-(2-o-tolyl-chroman-6-yloxy)-thiazol-5-ylmethyl]-acetamide], the IC50 is 3000 nM.

As to `CCCNC(=O)c1cnc(Oc2ccc3c(c2)CCC(c2cc(F)ccc2C)O3)s1` (stereo not drawn) [Example 343, 2-[2-(5-Fluoro-2-methyl-phenyl)-chroman-6-yloxy]-thiazole-5-carboxylic acid propylamide], the IC50 was found to be 800 nM.

Consider `CCCNC(=O)c1cnc(Oc2ccc3c(c2)CCC(c2ccccc2C)O3)s1` (stereo not drawn) [Example 330, 2-(2-o-Tolyl-chroman-6-yloxy)-thiazole-5-carboxylic acid propylamide], for which the IC50 was found to be 350 nM.

Take `Cc1ccccc1C1CCc2cc(Oc3nc(C)c(C(=O)NCc4ccno4)s3)ccc2O1` (stereo not drawn) [Example 334, 4-Methyl-2-(2-o-tolyl-chroman-6-yloxy)-thiazole-5-carboxylic acid (isoxazol-5-ylmethyl)-amide]: the IC50 is 2100 nM.
